Results reported in patent US8173133B2, “Acyl pseudodipeptides which carry a functionalized auxiliary arm” (OM Pharma, priority 1999, dated 2012).
Where “and” joins values, the source holds several entries; their conditions need not be identical. Identical values can stand only once.

How the values were obtained:
HIV-2 ROD = assay: anti-HIV activity in MT-4 cells (MTT), HIV-2 ROD; format: cell-based
Method: (§1) T MT-4 lymphocyte cell line which had been transformed into a continuous cell line by an HTLV infection, a virus associated with one form of leukemia, was used to test the antiviral activity (anti-HIV) of AZT- and d4T-conjugated compounds according to the invention, respectively. A characteristic feature of such cells is lack of survival following an HIV infection. The test is based on protection provided by the product (like AZT) against this viral destructive effect. Products were tested in serially diluted solutions in a 96-well plate. In the upper portion of the microplate, products were tested by incubation at various concentrations with cells and virus (in triplicate), so as to determine the concentration of product which affords cell protection against the viral destructive effect. IC50 of the product is taken as the concentration where a 50% loss of viable cell count is recorded. Viable cell count was done with MTT, a yellow tetrazolium compound which undergoes enzymatic reduction (at the mitochondrial level in viable cells) into a purple colored formazan compound. Wells containing viable cells are purple in colour, whereas dead cells give a persistent yellow color. Measurement of optical density (O.D.) allows this effect to be quantified.

MT-4 cells = assay: cytotoxicity on virus-free MT-4 cells (MTT); format: cell-based
Method: Cytotoxicity of a given product is assessed in the same manner in the lower portion of the plate where the test is conducted by incubating serially diluted products over virus-free cells, to thereby determine the toxic effect of products on cells. The result is given as CC50, i.e. the concentration at which 50% of cells are dead due to product toxicity. Selectivity (selectivity index, SI) of a given product is defined as a CC50/IC50 ratio. This parameter is of great importance since the selectivity index of a fairly efficient product is high.

HIV-1 IIIB = assay: anti-HIV activity in MT-4 cells (MTT), HIV-1 IIIB; format: cell-based
Method: as §1

Leishmania LmCPb antigen [1] = assay: Leishmania LmCPb immunization: IL-4 and γ IFN in lymph node cell supernatant (ELISA); format: in vivo, CBA mice; conditions: pools a and b
Method: (§2) CBA mice were administered through the tail a single subcutaneous injection (100 μl) of Leishmania parasite LmCPb antigen (3 μg per mouse)±adjuvant. […] Eleven days after injection, inguinal and periaortic lymph node cells (2 groups of 3 mice each) were cultured in triplicate in presence of purified LmCPb antigen or whole extract of the parasite (amastigote). At day 4, a supernatant sample is withdrawn and stored at −20° C. for IL-4 and γ IFN assay. Finally, tritiated thymidine (^3H-TdR) is added to the cultures to measure the proliferation reaction.
(§3) Cytokine assay is carried out by a sandwich ELISA assay (OptEIA®) kits for γ IFN and IL-4, BD, PharMingen, Basel, Switzerland) and the proliferation response is determined by measuring thymidine take-up (^3H-TdR). ^3H-TdR take-up given in cpm as the arithmetic mean value±standard deviation ([…] of 3 mice each) and IL-4 concentration given in pg/ml are individually reported for each pool of 3 mice as the arithmetic mean of two measurements (cytokine assay).
(§4) An LmCPb stock solution is prepared at a concentration of 150 μg/ml in PBS
(§5) Adjuvants: The stock solution of OM-294-MP-AC is prepared at a concentration of 0.9 mg/ml in water for injection, with addition of 0.1% triethanolamine.
(§6) Antigen-adjuvant mixture: Adjuvant preparation (4 volumes), which had been adjusted to an adequate final concentration in sterile PBS, is mixed just prior to injection with the antigen stock solution (1 volume).

dendritic cells = assay: in vivo maturation and migration of dendritic cells into the spleen; parameters: species or system mice; conditions: i.v. 20 μg and s.c. 5 μg per mouse
Source text: Immunostaining of histological slides taken from spleen of animals treated with products of the invention reveal colocalization of mature dendritic cells and T cells in the […], as is seen with LPS treatment, whereas in untreated animals, no migration and maturation are observed.

MxA protein = MxA protein induction in dendritic cells (Western blot); format: cell-based, human; conditions: 1 μg/ml; after 24 hr and 48 hours; FIGS. 77, 78
Method: The ability of products of the invention to induce production of antiviral MxA protein by predendritic cells has been assessed. MxA production by cells was measured after an SDS-PAGE electrophoretic separation by a Western Blot assay
Extraction and analysis of protein was conducted as follows: cells were harvested, then washed 3 times with PBS (phosphate buffered saline) and lyzed with a 100 Mm Tris-HCl buffer, 150 mM NaCl, 5 mM EDTA, 1% Triton-100 containing 1 mM PMSF (phenylmethylsulphonyl fluoride) and 1 μ/ml of pepstatin as protease inhibitors. Lysis was carried out at a density of 10^6 cells for 100 μl of (5×) buffer containing 60 mM Tris-HCl (pH 6.8), 10% glycerol, 2% SDS, 14.4 mM 2-mercaptoethanol and 0.1% bromophenol). Samples were heated up to 95° C. for 5 min. in sealed Eppendorf tubes. Electrophoresis was performed on a 10 cm×10 cm 12% acrylamide minigel by running a sample having the same number of cells. Migration was effected with the following buffer: 25 mM Tris, 192 mM glycine, 0.1% SDS, pH 8.3. […]
Non specific bonding sites on the membrane were blocked with 5% skimmed milk in TBS (10 mM Tris-HCl, 150 Mm NaCl, pH 7.4) and allowing to stand for 1 hour at room temperature. […] In this system, HRP catalyzes a luminol-mediated chemiluminescent reaction which can be detected on a photographic film. […]

Spleenic cells = assay: murine spleenic cell proliferation (3H-TdR take-up); format: cell-based, CBA mice; conditions: for increase of thymidine take-up: one day of culture
Method: Cell proliferation response is assessed by measuring triturated thymidine (^3H-TdR) take-up after 1 or 2 days of culture. Values reported in the table stand for the arithmetic mean±standard deviation of 4 cultures.

[2] = system: Limulus Amoebocyte Lysate
K562 cells = assay: activation of NK cell cytotoxicity against K562 target cells (LDH release); format: cell-based, human
Method: PBMC were recovered from buffy coats according to the procedure previously described in example 4.6. […] Cells were incubated under such conditions for 24 hours. K562 cells (human leukemia cell line, ATCC #CCL 243, 20110-2209 Manassas (Va.), U.S.A.) were maintained in culture using RPMI medium containing 10% FCS and subjected to 2 passages per week.
In order to make cytotoxicity measurement, PBMC and K562 cells were washed twice in HBSS and resuspended in Phenol Red-free RPMI medium containing 5% FCS. PBMC were divided into a round bottom 96-well plate so as to achieve a PBMC/target ratio of 20/1, 10/1 and 5/1 in 50 μl volume. 5000 K562 cells (target) were added in each well using 50 μl of Phenol Red-free RPMI. Final volume was 100 μl. The plate was centrifuged to promote contact then incubated at 37° C. for 4 hours.
Cytotoxicity was assayed using a non radioactive CytoTox 96 kit based on measuring LDH release during cell lysis (kit #G1780, batch #124100, Promega, Madison, Wis.) according to the supplier's instructions.
The percentage of cytotoxicity was calculated according to the following equation: […]

Leishmania LmCPb antigen [3] = assay: Leishmania LmCPb immunization: lymph node cell proliferation (3H-TdR); format: in vivo, CBA mice; parameters: scale not given here
Method: as §2, §3, §4, §5, §6

Cc1cn([C@H]2C[C@H](N=[N+]=[N-])[C@@H](CO)O2)c(=O)[nH]c1=O [AZT, reference compound]
IC50 (HIV-2 ROD): 1.8 nM | CC50 (MT-4 cells): 187000 nM | IC50 (HIV-1 IIIB): 2.9 nM

Cc1cn([C@H]2C=C[C@@H](CO)O2)c(=O)[nH]c1=O [Example D4T, reference compound]
IC50 (HIV-2 ROD): 220 nM | CC50 (MT-4 cells): 321000 nM | IC50 (HIV-1 IIIB): 107 nM

CCCCCCCCCCCC(=O)O[C@H](CCCCCCCCCCC)CC(=O)NC(CCOP(=O)(O)O)C(=O)NCCCC(COC(=O)CCCCCN)NC(=O)C[C@H](O)CCCCCCCCCCC (stereo partly drawn) [OM-197-MP-AC, 3-[(R)-3-dodecanoyloxytetra-decanoylamino]-4-oxo-5-aza-9-[(R)-3-hydroxytetradecanoylamino]-1,10-diol-dihydrogenphosphate 10-(6-aminohexanoate)]
IL-4 production (Leishmania LmCPb antigen [1]; No challenge): <8 pg/mL | IL-4 production (Leishmania LmCPb antigen [1]; in vitro challenge Amastigotes, first pair of lines): 55 pg/mL and 70 pg/mL | IL-4 production (Leishmania LmCPb antigen [1]; in vitro challenge Amastigotes, second pair of lines): 29 pg/mL and 28 pg/mL | IL-4 production (Leishmania LmCPb antigen [1]; in vitro challenge Con A): 103 pg/mL and 102 pg/mL | IL-4 production (Leishmania LmCPb antigen [1]; in vitro challenge LmCPb): 12 pg/mL and 13 pg/mL | maturation and migration of dendritic cells in spleen (dendritic cells): induce maturation and migration of dendritic cells into the spleen | production of MxA protein (MxA protein): significant rise | 3H-TdR take-up (Spleenic cells; 0.1 μg/ml, incubation 1 day): 8.7 ± 0.7 CPM × 10^−3 | 3H-TdR take-up (Spleenic cells; 0.1 μg/ml, incubation 2 days): 21.1 ± 1.3 CPM × 10^−3 | 3H-TdR take-up (Spleenic cells; 1 μg/ml, incubation 1 day): 34.3 ± 2.6 CPM × 10^−3 | 3H-TdR take-up (Spleenic cells; 1 μg/ml, incubation 2 days): 55.6 ± 5.2 CPM × 10^−3 | increase of thymidine take-up (Spleenic cells; 1 μg/ml): 5 fold | 3H-TdR take-up (Spleenic cells; 10 μg/ml, incubation 1 day): 79.0 ± 12 CPM × 10^−3 | 3H-TdR take-up (Spleenic cells; 10 μg/ml, incubation 2 days): 92.7 ± 8.8 CPM × 10^−3 | increase of thymidine take-up (Spleenic cells; 10 μg/ml): 12 fold | LAL EU/mg of product [2]: 6 EU/mg of product | LAL ng of LPS equivalent per mg of product [2]: 0.48 ng of LPS equivalent per mg of product | NK activity level (K562 cells; 1 μg/ml): comparable or slightly inferior to that induced by LPS | % cytotoxicity (K562 cells; Ratio PBMC:K562 5.1): 7.4% | Optical density at 490 nm, K562 + PBMC (K562 cells; Ratio PBMC:K562 5.1): 1.5 | Optical density at 490 nm, PBMC alone (K562 cells; Ratio PBMC:K562 5.1): 0.027 | % cytotoxicity (K562 cells; Ratio PBMC:K562 10.1): 13.7% | Optical density at 490 nm, K562 + PBMC (K562 cells; Ratio PBMC:K562 10.1): 1.66 | Optical density at 490 nm, PBMC alone (K562 cells; Ratio PBMC:K562 10.1): 0.084 | % cytotoxicity (K562 cells; Ratio PBMC:K562 20.1): 22% | Optical density at 490 nm, K562 + PBMC (K562 cells; Ratio PBMC:K562 20.1): 1.8 | Optical density at 490 nm, PBMC alone (K562 cells; Ratio PBMC:K562 20.1, stimulus 24 hours): 0.084 | triturated thymidine take-up (Leishmania LmCPb antigen [3]; adjuvant 50 μg s.c. with LmCPb, in vitro: No challenge): 0.7 ± 0.1 CPM | triturated thymidine take-up (Leishmania LmCPb antigen [3]; in vitro challenge Amastigotes 2 ×10^−6/ml): 1.6 ± 0.3 CPM | triturated thymidine take-up (Leishmania LmCPb antigen [3]; in vitro challenge Amastigotes 6 ×10^−6/ml): 5.3 ± 1.5 CPM | triturated thymidine take-up (Leishmania LmCPb antigen [3]; in vitro challenge Amastigotes 17 ×10^−6/ml): 12.6 ± 2.5 CPM | triturated thymidine take-up (Leishmania LmCPb antigen [3]; in vitro challenge Amastigotes 50 ×10^−6/ml): 32.6 ± 5.2 CPM | triturated thymidine take-up (Leishmania LmCPb antigen [3]; in vitro challenge Con A 5 μg/ml): 208.5 ± 56.0 CPM | triturated thymidine take-up (Leishmania LmCPb antigen [3]; in vitro challenge LmCPb 0.6 μg/ml): 1.3 ± 0.5 CPM | triturated thymidine take-up (Leishmania LmCPb antigen [3]; in vitro challenge LmCPb 5 μg/ml): 3.0 ± 1.1 CPM | triturated thymidine take-up (Leishmania LmCPb antigen [3]; in vitro challenge LmCPb 15 μg/ml): 7.0 ± 0.7 CPM
